{
  "source": "patent US9820991B2",
  "about": "“Pharmaceutical composition comprising brinzolamide” (SENTISS PHARMA PVT. LTD., priority 2013, dated 2017)",
  "origin": "cited, not measured here",
  "conditions": "in tear fluid",
  "data": [
    {"smiles": "CCN[C@H]1CN(CCCOC)S(=O)(=O)c2sc(S(N)(=O)=O)cc21", "note": "[brinzolamide, (R)-(+)-4-Ethylamino-2-(3-methoxypropyl)-3,4-dihydro-2H-thieno [3,2-e]-1,2-thiazine-6-sulfonamide-1,1-dioxide]", "values": [
      {"measurement": "solubility", "value": "around 0.08%"}
    ]}
  ]
}
